According to patent publication US9284321B2, “Piperazino[1,2-a]indol-1-ones and [1,4]diazepino[1,2-a]indol-1-one” (Hoffmann-La Roche Inc., priority 2012, dated 2016):

What was measured:
[1] = tested on: human embryonic stem cell derived neural stem cells (NSCs); test: Neural Stem Cell Proliferation Assay (neurogenesis assay, ATP levels by CellTiterGlo); assay type: cell-based; details: 96 h, compound concentration at which 150% activity of control (100%) is reached, NSC proliferation by ATP level after 4 days incubation, dose response 8 μM to 8 nM
In short: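 Read-out is CellTiterGlo ATP luminescence after 4-day culture (37 °C, 5% CO2) of dual-SMAD-derived human ESC NSCs, dosed 4 h post-seeding at 8 μM to 8 nM (11 points, 2-fold). EC150 marks the concentration reaching 150% of the media-only control (0.25% DMSO).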

Row | Structure (SMILES) | melting point [°C] | EC (150% of control) [1] [µM]
1 | Cc1c2n(c3c(-c4ccc(Cl)c(C(F)(F)F)c4)cc(Cl)cc13)CCNC2=O [Example 135, 8-Chloro-6-(4-chloro-3-trifluoromethyl-phenyl)-10-methyl-3,4-dihydro-2H-pyrazino[1,2-a]indol-1-one] | 268 | 0.036
2 | O=C1NCCCn2c1cc1cc(F)cc(-c3ccccc3)c12 [Example 15, 9-Fluoro-7-phenyl-2,3,4,5-tetrahydro-[1,4]diazepino[1,2-a]indol-1-one] | 277 | 0.084
3 | Cc1cc(-c2ccc(F)cc2)c2c(c1)cc1n2CCCNC1=O [Example 57, 7-(4-Fluoro-phenyl)-9-methyl-2,3,4,5-tetrahydro-[1,4]diazepino[1,2-a]indol-1-one] | 234.5 | 1.44
4 | Cc1c2n(c3c(-c4ccc(S(C)(=O)=O)cc4)cc(F)cc13)CCNC2=O [Example 125, 8-Fluoro-6-(4-methanesulfonyl-phenyl)-10-methyl-3,4-dihydro-2H-1-pyrazino[1,2-a]indol-1-one] | 292 | 0.015
5 | O=C1NCCn2c1cc1cc(Cl)cc(-c3ccc(F)c(F)c3)c12 [Example 50, 8-Chloro-6-(3,4-difluoro-phenyl)-3,4-dihydro-2H-pyrazino[1,2-a]indol-1-one] | 277.5 | 0.13
6 | Cc1c2n(c3c(-c4ccc(OC(F)(F)F)cc4)cc(Cl)cc13)CCNC2=O [Example 133, 8-Chloro-10-methyl-6-(4-trifluoromethoxy-phenyl)-3,4-dihydro-2H-pyrazino[1,2-a]indol-1-one] | 212 | 0.004
7 | O=C1NCCCn2c1cc1cc(Cl)cc(-c3ccc(F)cc3)c12 [Example 48, 9-Chloro-7-(4-fluoro-phenyl)-2,3,4,5-tetrahydro-[1,4]diazepino[1,2-a]indol-1-one] | 260 | 0.43
8 | N#Cc1cc(-c2cccc(C(F)(F)F)c2)c2c(c1)cc1n2CCNC1=O [Example 195, 1-Oxo-6-[3-(trifluoromethyl)phenyl]-3,4-dihydro-2H-pyrazino[1,2-a]indole-8-carbonitrile] | 279.5 | 1.4
9 | Cc1c2n(c3c(-c4ccc(C(F)(F)F)cc4)cc(Cl)cc13)CCNC2=O [Example 90, 8-Chloro-10-methyl-6-(4-trifluoromethyl-phenyl)-3,4-dihydro-2H-pyrazino[1,2-a]indol-1-one] | 260.5 | 0.017
10 | Cc1c2n(c3c(-c4ccccc4)cc(F)cc13)CCNC2=O [Example 80, 8-Fluoro-10-methyl-6-phenyl-3,4-dihydro-2H-pyrazino[1,2-a]indol-1-one] | 244 | 0.098
11 | Cc1c2n(c3c(-c4ccc(Cl)cc4F)cc(F)cc13)CCNC2=O [Example 121, 6-(4-Chloro-2-fluoro-phenyl)-8-fluoro-10-methyl-3,4-dihydro-2H-pyrazino[1,2-a]indol-1-one] | 221 | 0.01
12 | Cc1ccc(-c2cc(F)cc3c(C)c4n(c23)CCNC4=O)cc1 [Example 81, 8-Fluoro-10-methyl-6-p-tolyl-3,4-dihydro-2H-pyrazino[1,2-a]indol-1-one] | 226 | 0.014
13 | CC1CCNC(=O)c2cc3cc(F)cc(-c4ccccc4)c3n21 (racemic) [Example 26, (RS)-9-Fluoro-5-methyl-7-phenyl-2,3,4,5-tetrahydro-[1,4]diazepino[1,2-a]indol-1-one] | 232.5 | 0.24
14 | O=C1NCCCn2c1cc1c(F)c(F)cc(-c3ccc(F)cc3)c12 [Example 36, 9,10-Difluoro-7-(4-fluoro-phenyl)-2,3,4,5-tetrahydro-[1,4]diazepino[1,2-a]indol-1-one] | 287 | 3.9
15 | COc1ccc(-c2cc(C)cc3cc4n(c23)CCNC4=O)cc1 [Example 61, 6-(4-Methoxy-phenyl)-8-methyl-3,4-dihydro-2H-pyrazino[1,2-a]indol-1-one] | 245 | 0.059
16 | Cc1ccc(-c2cc(F)cc3cc4n(c23)CCNC4=O)cc1 [Example 24, 8-Fluoro-6-p-tolyl-3,4-dihydro-2H-pyrazino[1,2-a]indol-1-one] | 271.5 | 0.017
17 | C[C@@H]1CNC(=O)c2cc3cccc(-c4ccncc4)c3n21 [Example 3, (R)-4-Methyl-6-pyridin-4-yl-3,4-dihydro-2H-pyrazino[1,2-a]indol-1-one] | 264 | 2.31
18 | N#Cc1cc(-c2ccc(F)c(F)c2)c2c(c1)c(C(F)(F)F)c1n2CCNC1=O [Example 182, 6-(3,4-Difluoro-phenyl)-1-oxo-10-trifluoromethyl-1,2,3,4-tetrahydro-pyrazino[1,2-a]indole-8-carbonitrile] | 217 | 0.29
19 | Cc1c2n(c3c(-c4cc(F)cc(F)c4)cc(Cl)cc13)CCNC2=O [Example 99, 8-Chloro-6-(3,5-difluoro-phenyl)-10-methyl-3,4-dihydro-2H-pyrazino[1,2-a]indol-1-one] | 241 | 0.12
20 | Cc1c2n(c3c(-c4ccc(C(C)(C)C)cc4)cc(F)cc13)CCNC2=O [Example 132, 6-(4-tert-Butyl-phenyl)-8-fluoro-10-methyl-3,4-dihydro-2H-pyrazino[1,2-a]indol-1-one] | 216 | 0.046
21 | Cc1c2n(c3c(-c4ccc(Cl)cc4Cl)cc(F)cc13)CCNC2=O [Example 120, 6-(2,4-Dichloro-phenyl)-8-fluoro-10-methyl-3,4-dihydro-2H-pyrazino[1,2-a]indol-1-one] | 214 | 0.01
22 | Cc1c2n(c3c(-c4cccc(C#N)c4)cc(F)cc13)CCNC2=O [Example 131, 3-(8-Fluoro-10-methyl-1-oxo-1,2,3,4-tetrahydro-pyrazino[1,2-a]indol-6-yl)-benzonitrile] | 192 | 0.33
23 | Cc1c2n(c3c(-c4ccc(C(C)C)cc4)cc(F)cc13)CCNC2=O [Example 127, 8-Fluoro-6-(4-isopropyl-phenyl)-10-methyl-3,4-dihydro-2H-pyrazino[1,2-a]indol-1-one] | 177 | 0.025

Further lines, with some results ahead:

Row | melting point [°C] | Structure (SMILES) | EC (150% of control) [1] [µM]
24 | 290 | Cc1cc(-c2cc(C#N)cc3cc4n(c23)CCNC4=O)ccc1F [Example 231, 6-(4-Fluoro-3-methylphenyl)-1-oxo-3,4-dihydro-2H-pyrazino[1,2-a]indole-8-carbonitrile] | 0.058
25 | 305 | N#Cc1cc(-c2ccc(N)nc2)c2c(c1)cc1n2CCNC1=O [Example 224, 6-(6-Aminopyridin-3-yl)-1-oxo-3,4-dihydro-2H-pyrazino[1,2-a]indole-8-carbonitrile] | 0.76
26 | 253 | Cc1c2n(c3c(-c4cc(F)c(F)c(F)c4)cc(C#N)cc13)CCNC2=O [Example 240, 10-Methyl-1-oxo-6-(3,4,5-trifluorophenyl)-3,4-dihydro-2H-pyrazino[1,2-a]indole-8-carbonitrile] | 0.11
27 | 265 | Cc1ccc(-c2cc(C#N)cc3c(C)c4n(c23)CCCNC4=O)cc1F [Example 291, 7-(3-Fluoro-4-methylphenyl)-11-methyl-1-oxo-2,3,4,5-tetrahydro-[1,4]diazepino[1,2-a]indole-9-carbonitrile] | 0.16
28 | 248.5 | N#Cc1cc(-c2cccc(F)c2)c2c(c1)cc1n2CCNC1=O [Example 223, 6-(3-Fluorophenyl)-1-oxo-3,4-dihydro-2H-pyrazino[1,2-a]indole-8-carbonitrile] | 0.076
29 | 294 | N#Cc1cc(-c2ccc(F)c(F)c2F)c2c(c1)cc1n2CCNC1=O [Example 202, 1-Oxo-6-(2,3,4-trifluorophenyl)-3,4-dihydro-2H-pyrazino[1,2-a]indole-8-carbonitrile] | 0.046
30 | 277 | Cc1ccc(-c2cc(C#N)cc3c(C)c4n(c23)CCNC4=O)cc1 [Example 258, 10-Methyl-6-(4-methylphenyl)-1-oxo-3,4-dihydro-2H-pyrazino[1,2-a]indole-8-carbonitrile] | 0.035
31 | 325 | Cc1c2n(c3c(-c4cncnc4)cc(C#N)cc13)CCNC2=O [Example 283, 10-Methyl-1-oxo-6-pyrimidin-5-yl-3,4-dihydro-2H-pyrazino[1,2-a]indole-8-carbonitrile] | 1.61
32 | 256.5 | N#Cc1cc(-c2ccc(CO)cc2)c2c(c1)cc1n2CCCNC1=O [Example 266, 7-[4-(Hydroxymethyl)phenyl]-1-oxo-2,3,4,5-tetrahydro-[1,4]diazepino[1,2-a]indole-9-carbonitrile] | 0.93
33 | 278.5 | Cc1ccc(-c2cc(C#N)cc3cc4n(c23)CCNC4=O)cc1F [Example 233, 6-(3-Fluoro-4-methylphenyl)-1-oxo-3,4-dihydro-2H-pyrazino[1,2-a]indole-8-carbonitrile] | 0.052
34 | 226 | Cc1c2n(c3c(-c4cccc(F)c4)cc(C#N)cc13)CCNC2=O [Example 259, 6-(3-Fluorophenyl)-10-methyl-1-oxo-3,4-dihydro-2H-pyrazino[1,2-a]indole-8-carbonitrile] | 0.06
35 | 323.5 | N#Cc1cc(-c2cncnc2)c2c(c1)cc1n2CCNC1=O [Example 225, 1-Oxo-6-pyrimidin-5-yl-3,4-dihydro-2H-pyrazino[1,2-a]indole-8-carbonitrile] | 1.75
